PubChem BioAssay AID328 (DTP/NCI, 2004)
Values joined by “and” are separate entries in the source; they are usually repeats but may differ in a detail not shown here. Equal values may be shown once. Inconclusive results and toxic doses are left out.

System: BDF1 mice, P388 leukemia ip, median survival T/C
Assay: NCI In Vivo Anticancer Drug Screen. Data for tumor model P388 Leukemia (intraperitoneal) in B6D2F1 (BDF1) mice
Details: endpoint: median survival time, higher = longer survival
How it was run: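 T/C = treated-group survival ÷ vehicle-control survival; tumour transplanted into mice before dosing.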

[1] = dose: 100.0 mg/kg/injection, schedule: Q01DX009 (ip), vehicle: Klucel (hydroxypropylcellulose) (HPC)
[2] = dose: 50.0 mg/kg/injection, schedule: Q01DX009 (ip), vehicle: saline with Tween-80
[3] = dose: 100.0 mg/kg/injection, schedule: Q01DX009 (ip), vehicle: saline with Tween-80
[4] = dose: 6.25 mg/kg/injection, schedule: Q01DX009 (ip), vehicle: saline
[5] = dose: 12.5 mg/kg/injection, schedule: Q01DX009 (ip), vehicle: saline
[6] = dose: 50.0 mg/kg/injection, schedule: Q04DX003 (ip), vehicle: saline
[7] = dose: 100.0 mg/kg/injection, schedule: Q01DX009 (ip), vehicle: saline
[8] = dose: 200.0 mg/kg/injection, schedule: Q01DX009 (ip), vehicle: saline with Tween-80
[9] = dose: 400.0 mg/kg/injection, schedule: Q01DX009 (ip), vehicle: saline with Tween-80
[10] = dose: 100.0 mg/kg/injection, schedule: Q04DX003 (ip), vehicle: saline with Tween-80
[11] = dose: 200.0 mg/kg/injection, schedule: Q04DX003 (ip), vehicle: saline with Tween-80
[12] = dose: 400.0 mg/kg/injection, schedule: Q04DX003 (ip), vehicle: saline with Tween-80
[13] = dose: 25.0 mg/kg/injection, schedule: Q01DX009 (ip), vehicle: saline

Compound: C[CH2][Pb]([CH2]C)([CH2]C)[O]C(=O)COC
- T/C (dose: 0.78 mg/kg/injection, schedule: Q01DX009 (ip), vehicle: Klucel (hydroxypropylcellulose) (HPC)): 115 % of control
- T/C (dose: 1.56 mg/kg/injection, schedule: Q01DX009 (ip), vehicle: Klucel (hydroxypropylcellulose) (HPC)): 98 % of control
- T/C (dose: 3.13 mg/kg/injection, schedule: Q01DX009 (ip), vehicle: Klucel (hydroxypropylcellulose) (HPC)): 121 % of control

Compound: O=NN(CCCl)C(=O)NCCCl
- T/C (dose: 0.5 mg/kg/injection, schedule: Q01DX001 (ip), vehicle: saline): 111 % of control
- T/C (dose: 1.0 mg/kg/injection, schedule: Q01DX001 (ip), vehicle: saline): 105 % of control
- T/C (dose: 2.0 mg/kg/injection, schedule: Q01DX009 (ip), vehicle: other): 172 % of control and 180 % of control
- T/C (dose: 3.13 mg/kg/injection, schedule: Q01DX010 (ip), vehicle: saline): 255 % of control and 260 % of control
- T/C (dose: 3.2 mg/kg/injection, schedule: Q01DX009 (ip), vehicle: saline + alcohol): 195 % of control
- T/C (dose: 4.0 mg/kg/injection, schedule: Q01DX009 (ip), vehicle: other): 227 % of control and 276 % of control
- T/C (dose: 4.8 mg/kg/injection, schedule: Q01DX009 (ip), vehicle: saline + alcohol): 275 % of control and 276 % of control
- T/C (dose: 5.0 mg/kg/injection, schedule: Q01DX001 (ip), vehicle: saline): 164 % of control
- T/C (dose: 6.25 mg/kg/injection, schedule: Q01DX010 (ip), vehicle: saline): 300 % of control
- T/C (dose: 6.4 mg/kg/injection, schedule: Q01DX009 (ip), vehicle: saline + alcohol): 319 % of control and 532 % of control
- T/C (dose: 7.5 mg/kg/injection, schedule: Q01DX001 (ip), vehicle: saline + alcohol): 157 % of control and 200 % of control
- T/C (dose: 7.5 mg/kg/injection, schedule: Q01DX001 (ip), vehicle: saline): 211 % of control
- T/C (dose: 8.0 mg/kg/injection, schedule: Q01DX009 (ip), vehicle: other): 270 % of control and 514 % of control
- T/C (dose: 10.0 mg/kg/injection, schedule: Q01DX001 (ip), vehicle: saline): 212 % of control
- T/C (dose: 12.0 mg/kg/injection, schedule: Q01DX001 (ip), vehicle: Klucel (hydroxypropylcellulose) (HPC)): 119 % of control
- T/C (dose: 15.0 mg/kg/injection, schedule: Q01DX001 (ip), vehicle: saline + alcohol): 253 % of control and 176 % of control
- T/C (dose: 15.0 mg/kg/injection, schedule: Q01DX001 (ip), vehicle: saline): 159 % of control
- T/C (dose: 16.0 mg/kg/injection, schedule: Q01DX001 (ip), vehicle: saline + alcohol): 196 % of control
- T/C (dose: 16.0 mg/kg/injection, schedule: Q01DX009 (ip), vehicle: other): 100 % of control
- T/C (dose: 20.0 mg/kg/injection, schedule: Q01DX001 (ip), vehicle: saline): 238 % of control and 154 % of control
- T/C (dose: 20.0 mg/kg/injection, schedule: Q#XHX024 (ip), vehicle: saline): 229 % of control
- T/C (dose: 21.6 mg/kg/injection, schedule: Q01DX001 (ip), vehicle: other): 175 % of control
- T/C (dose: 21.6 mg/kg/injection, schedule: Q01DX001 (ip), vehicle: saline + alcohol): 152 % of control
- T/C (dose: 30.0 mg/kg/injection, schedule: Q01DX001 (ip), vehicle: saline): 247 % of control and 564 % of control and 159 % of control
- T/C (dose: 30.0 mg/kg/injection, schedule: Q#XHX024 (ip), vehicle: saline): 546 % of control
- T/C (dose: 32.0 mg/kg/injection, schedule: Q01DX001 (ip), vehicle: saline + alcohol): 225 % of control
- T/C (dose: 36.0 mg/kg/injection, schedule: Q01DX001 (ip), vehicle: other): 236 % of control
- T/C (dose: 36.0 mg/kg/injection, schedule: Q01DX001 (ip), vehicle: saline + alcohol): 499 % of control
- T/C (dose: 40.0 mg/kg/injection, schedule: Q01DX001 (ip), vehicle: saline): 266 % of control
- T/C (dose: 60.0 mg/kg/injection, schedule: Q01DX001 (ip), vehicle: saline + alcohol): 88 % of control
- T/C (dose: 64.0 mg/kg/injection, schedule: Q01DX001 (ip), vehicle: saline + alcohol): 281 % of control

Compound: COc1cc2c(cc1OC)C1CNCC1C(c1cc(OC)c(OC)c(OC)c1)C2 (stereo not drawn)
- T/C (dose: 12.5 mg/kg/injection, schedule: Q01DX009 (ip), vehicle: Klucel (hydroxypropylcellulose) (HPC)): 105 % of control
- T/C (dose: 25.0 mg/kg/injection, schedule: Q01DX009 (ip), vehicle: Klucel (hydroxypropylcellulose) (HPC)): 100 % of control
- T/C (dose: 50.0 mg/kg/injection, schedule: Q01DX009 (ip), vehicle: Klucel (hydroxypropylcellulose) (HPC)): 100 % of control
- T/C [1]: 90 % of control

Compound: Cn1c(Cc2ccccc2)c([N+](=O)[O-])c(=O)n(C)c1=O
- T/C [2]: 110 % of control
- T/C [3]: 113 % of control

Compound: CN(C)CCCN1c2ccccc2Sc2ccc(Cl)cc21
- T/C [4]: 109 % of control
- T/C [5]: 109 % of control
- T/C (dose: 12.5 mg/kg/injection, schedule: Q04DX003 (ip), vehicle: saline with Tween-80): 104 % of control
- T/C (dose: 12.5 mg/kg/injection, schedule: Q04DX003 (ip), vehicle: saline): 106 % of control
- T/C (dose: 25.0 mg/kg/injection, schedule: Q04DX003 (ip), vehicle: saline with Tween-80): 108 % of control
- T/C (dose: 25.0 mg/kg/injection, schedule: Q04DX003 (ip), vehicle: saline): 89 % of control
- T/C [6]: 112 % of control

Compound: Cn1cc(C=O)c2nccnc21
- T/C (dose: 0.78 mg/kg/injection, schedule: Q01DX009 (ip), vehicle: saline): 92 % of control
- T/C (dose: 1.56 mg/kg/injection, schedule: Q01DX009 (ip), vehicle: saline): 112 % of control
- T/C [4]: 91 % of control
- T/C [5]: 86 % of control
- T/C [3]: 117 % of control
- T/C [7]: 108 % of control

Compound: CCOC(=O)NCCc1ccc(OC)c(OC)c1
- T/C (dose: 25.0 mg/kg/injection, schedule: Q01DX009 (ip), vehicle: saline with Tween-80): 109 % of control
- T/C [2]: 124 % of control
- T/C [3]: 89 % of control
- T/C [8]: 106 % of control
- T/C [9]: 107 % of control

Compound: Cc1c(Cl)cccc1NC(=O)c1ccccc1C(=O)O
- T/C (dose: 100.0 mg/kg/injection, schedule: Q04DX003 (ip), vehicle: Klucel (hydroxypropylcellulose) (HPC)): 91 % of control
- T/C (dose: 200.0 mg/kg/injection, schedule: Q04DX003 (ip), vehicle: Klucel (hydroxypropylcellulose) (HPC)): 95 % of control
- T/C (dose: 400.0 mg/kg/injection, schedule: Q04DX003 (ip), vehicle: Klucel (hydroxypropylcellulose) (HPC)): 100 % of control

Compound: CC(C)NC(=O)c1ccccc1Sc1ccccc1C(=O)NC(C)C
- T/C [10]: 105 % of control
- T/C [11]: 105 % of control
- T/C [12]: 99 % of control

Compound: CCc1ccc(C(=O)C2CC2)cc1
- T/C [10]: 104 % of control
- T/C (dose: 133.0 mg/kg/injection, schedule: Q01DX008 (ip), vehicle: saline with Tween-80): 108 % of control
- T/C (dose: 200.0 mg/kg/injection, schedule: Q01DX008 (ip), vehicle: saline with Tween-80): 116 % of control
- T/C [11]: 112 % of control
- T/C (dose: 300.0 mg/kg/injection, schedule: Q01DX008 (ip), vehicle: saline with Tween-80): 115 % of control
- T/C [12]: 104 % of control

Compound: CC1CCCCN1CCCO (stereo not drawn)
- T/C [13]: 104 % of control
- T/C (dose: 50.0 mg/kg/injection, schedule: Q01DX009 (ip), vehicle: saline): 108 % of control
- T/C [6]: 92 % of control
- T/C [7]: 112 % of control
- T/C (dose: 100.0 mg/kg/injection, schedule: Q04DX003 (ip), vehicle: saline): 96 % of control

Compound: CC(C)=CC(=O)OCC[N+](C)(C)C
- T/C [5]: 97 % of control
- T/C [13]: 90 % of control

Compound: CC(=O)OCC1OC(n2cc(C(F)(F)F)c(=O)[nH]c2=O)CC1OC(C)=O (stereo not drawn)
- T/C (dose: 62.5 mg/kg/injection, schedule: Q01DX009 (ip), vehicle: Klucel (hydroxypropylcellulose) (HPC)): 95 % of control
- T/C [1]: 100 % of control
- T/C (dose: 125.0 mg/kg/injection, schedule: Q01DX009 (ip), vehicle: Klucel (hydroxypropylcellulose) (HPC)): 109 % of control
- T/C (dose: 200.0 mg/kg/injection, schedule: Q01DX009 (ip), vehicle: Klucel (hydroxypropylcellulose) (HPC)): 100 % of control
- T/C (dose: 250.0 mg/kg/injection, schedule: Q01DX009 (ip), vehicle: Klucel (hydroxypropylcellulose) (HPC)): 90 % of control
- T/C (dose: 400.0 mg/kg/injection, schedule: Q01DX009 (ip), vehicle: Klucel (hydroxypropylcellulose) (HPC)): 105 % of control
- T/C (dose: 500.0 mg/kg/injection, schedule: Q01DX009 (ip), vehicle: Klucel (hydroxypropylcellulose) (HPC)): 109 % of control

Compound: Cc1ccc(S(=O)(=O)Oc2ccc(-c3ccc(OS(=O)(=O)c4ccc(C)cc4)cc3)cc2)cc1
- T/C [2]: 107 % of control
- T/C [3]: 111 % of control
- T/C [8]: 90 % of control
- T/C [9]: 94 % of control
